Reference: the NIST ThermoML archive (doi:10.1021/je2002539)
± gives the expanded uncertainty stated by the source.

assay: refractive index (Na D-line) (dimensionless); details: 298.15 K; 101.33 kPa; Liquid; Standard Abbe refractometry

refractive index	SMILES
1.4158 ± 0.00033	CCCCCCO [hexan-1-ol]
1.43436 ± 0.00033	CCCCCCCCCCO [decan-1-ol]
1.44058 ± 0.00033	CCCCCCCCCCCCO [dodecan-1-ol]
1.33248 ± 0.00031	O [water]
1.38305 ± 0.00033	CCCO [propan-1-ol]
1.42695 ± 0.00033	CCCCCCCCO [octan-1-ol]
1.43084 ± 0.00033	CCCCCCCCCO [nonan-1-ol]
1.40703 ± 0.00033	CCCCCO [pentan-1-ol]
